Laboratory results published in patent US4933104A, “Anthraquinone derivative as a dichroic dye for a liquid-crystal material, liquid-crystal material and an electrooptical device” (priority 1986, dated 1990).
Values joined by “and” are separate entries in the source; they are usually repeats but may differ in a detail not shown here. Identical values can stand only once.

Assays:
Format in all cases: physicochemical
[1] = limiting solubility in liquid-crystalline mixtures at 20° C.; conditions: for Solubility (limiting), known derivatives: Table 6, derivatives of SU 1089084; for solubility exceeds the solubility of the known analogue: ratio to known derivative, No. 2, 7 and 6 of Table 3 vs No. 1, 5 and 6 of Table 6
[2] = λmax of the long-wave absorption band of the dye; conditions: Table 7; two values = two maxima
Description: A weighed sample of one or several anthraquinone derivatives of general formula /1/ is dissolved upon heating to 60° C. in a liquid-crystalmatrix and then cooled to 20° C.

[3] = negative dichroism S in a liquid-crystalline mixture; conditions: liquid-crystalline mixture ZK-807
Description: (§1) Table 1 given below lists the values of negative dichroism of the anthraquinone derivative of general formula /1/ for examples 1-30 in a liquid-crystalline mixture ZK-807; Table 2 illustrates physico-chemical characteristics, and Table 3--limiting solubility in liquid-crystalline mixtures (ZK-807, ZLI-1840, 3010, SP-586, ZK-1282) at 20° C.

[4] = λmax of the long-wave absorption band of the dye; conditions: Table 1 / Examples; several values = several maxima
Description: as §1

SMILES	Solubility (limiting), known derivatives ([1]; ZK-807, 20° C.)	λmax, known derivatives [2]	Solubility (limiting), known derivatives ([1]; ZLI-1840, 20° C.)	Solubility (limiting) ([1]; 3010, 20° C.)	Solubility (limiting) ([1]; SP-586, 20° C.)	Solubility (limiting) ([1]; ZK-807, 20° C.)	Solubility (limiting) ([1]; ZK-1282, 20° C.)	solubility exceeds the solubility of the known analogue [1]	negative dichroism S [3]	λmax [4]	Solubility (limiting) ([1]; ZLI-1840, 20° C.)
CCCCc1ccc(C(=O)Nc2ccc(O)c3c2C(=O)c2c(NC(=O)c4ccc(CCCC)cc4)ccc(O)c2C3=O)cc1 [No. 7, Table 6, reference compound]	0.1 mass %	560 nm									
CCCCc1ccc(C(=O)Nc2ccc(NC(=O)c3ccc(CCCC)cc3)c3c2C(=O)c2ccccc2C3=O)cc1 [No. 3, Table 6, reference compound]	2.0 mass %	508 nm	0.3 mass %								
CCCCc1ccc(C(=O)Nc2ccc(O)c3c2C(=O)c2c(NC(=O)c4ccc(CCCC)cc4)ccc(OC(=O)c4ccc(CCCC)cc4)c2C3=O)cc1 [No. 8, Table 6, reference compound]	1.0 mass %	535 nm	0.3 mass %								
CCCCCCc1ccc(C(=O)Nc2ccc(O)c3c2C(=O)c2c(NC(=O)c4ccc(CCCCCC)cc4)ccc(O)c2C3=O)cc1 [No. 9, Table 6, reference compound]	0.1 mass %	562 nm									
CCCCCCc1ccc(C(=O)Nc2ccc(NC(=O)c3ccc(CCCCCC)cc3)c3c2C(=O)c2ccccc2C3=O)cc1 [No. 4, Table 6, reference compound]	2.3 mass %	512 nm	0.6 mass %								
CCCCCCc1ccc(C(=O)Nc2ccc(OC(=O)c3ccc(CCCCCC)cc3)c3c2C(=O)c2c(NC(=O)c4ccc(CCCCCC)cc4)ccc(OC(=O)c4ccc(CCCCCC)cc4)c2C3=O)cc1 [No. 5, Table 6, reference compound]	0.5 mass %	468 nm	0.1 mass %								
CCCCc1ccc(C(=O)Nc2cc(CCCC)c(OC(=O)c3ccc(CCCC)cc3)c3c2C(=O)c2c(NC(=O)c4ccc(CCCC)cc4)cc(CCCC)c(OC(=O)c4ccc(CCCC)cc4)c2C3=O)cc1 [Compound 6, 1,8-Bis-(4-butylbenzamido)-4,5-bis-(4.butylbenzoyloxy)-3,6-dibutylanthraquinone]				4.6 mass %	4.0 mass %	9.0 mass %	4.0 mass %	18 times	-0.33	468 nm	
CCCCc1ccc(C(=O)Nc2cc(CCCC)c(NC(=O)c3ccc(CCCC)cc3)c3c2C(=O)c2ccccc2C3=O)cc1 [Compound 2, 1,4-Bis(4-butylbenzamido)-2-butylanthraquinone]					2.9 mass %	4.0 mass %		2.5 times	-0.22	475 nm	3.6 mass %
CCCCCCC1CCC(C(=O)Nc2ccc(OC(=O)C3CCC(CCCCCC)CC3)c3c2C(=O)c2c(NC(=O)C4CCC(CCCCCC)CC4)cc(C)c(OC(=O)C4CCC(CCCCCC)CC4)c2C3=O)CC1 (stereo not drawn) [Compound 5]				1.0 mass %		3.0 mass %			-0.37	461 nm	
CCCCC[C@H]1CC[C@H](c2ccc(C(=O)Nc3ccc(O)c4c3C(=O)c3c(NC(=O)c5ccc([C@H]6CC[C@H](CCCCC)CC6)cc5)cc(C)c(O)c3C4=O)cc2)CC1 [Compound 27, 1,8-Bis-4-(trans-4-amylcyclohexyl)benzamido-3-methyl-4,5-dioxyanthraquinone]				1.0 mass %		1.0 mass %	1.0 mass %		-0.33	562 nm and 603 nm	1.0 mass %
CCCCCC1CCC(c2ccc(C(=O)Nc3ccc(O)c4c3C(=O)c3c(NC(=O)c5ccc(C6CCC(CCCCC)CC6)cc5)ccc(OC(=O)c5ccc(C6CCC(CCCCC)CC6)cc5)c3C4=O)cc2)CC1 (stereo not drawn) [No. 10, Table 6, reference compound]	0.2 mass %	554 nm	0.6 mass %								
CCCCc1ccc(C(=O)Nc2ccc(OC(=O)c3ccc(CCCC)cc3)c3c2C(=O)c2c(NC(=O)c4ccc(CCCC)cc4)ccc(OC(=O)c4ccc(CCCC)cc4)c2C3=O)cc1 [No. 6, Table 6, reference compound]	0.5 mass %	470 nm									
CCCCCC1CCC(c2ccc(C(=O)Nc3cc(CCCC)c(O)c4c3C(=O)c3c(NC(=O)c5ccc(C6CCC(CCCCC)CC6)cc5)cc(CCCC)c(OC(=O)c5ccc(C6CCC(CCCCC)CC6)cc5)c3C4=O)cc2)CC1 (stereo not drawn) [Compound 19]				4.8 mass %	2.9 mass %				-0.38	540 nm	2.5 mass %
CCCCCC1CCC(c2ccc(C(=O)Nc3ccc(O)c4c3C(=O)c3c(NC(=O)c5ccc(C6CCC(CCCCC)CC6)cc5)cc(CCCC)c(O)c3C4=O)cc2)CC1 (stereo not drawn) [Compound 28]				1.1 mass %	0.8 mass %	0.6 mass %	1.0 mass %		-0.32	564 nm and 605 nm	1.0 mass %
CCCCCC1CCC(c2ccc(C(=O)Nc3ccc(OC(=O)c4ccc(C5CCC(CCCCC)CC5)cc4)c4c3C(=O)c3c(NC(=O)c5ccc(C6CCC(CCCCC)CC6)cc5)cc(C)c(OC(=O)c5ccc(C6CCC(CCCCC)CC6)cc5)c3C4=O)cc2)CC1 (stereo not drawn) [Compound 4]				3.0 mass %	1.9 mass %	1.0 mass %			-0.36	468 nm	1.5 mass %
CCCCc1cc(NC(=O)C2CCC(CCCC)CC2)c2c(c1OC(=O)c1ccc(C3CCC(CCCC)CC3)cc1)C(=O)c1c(OC(=O)c3ccc(C4CCC(CCCC)CC4)cc3)c(CCCC)cc(NC(=O)C3CCC(CCCC)CC3)c1C2=O (stereo not drawn) [Compound 10]				9.0 mass %	7.5 mass %	10.8 mass %			-0.35	466 nm	7.2 mass %
CCCCc1cc(NC(=O)c2ccc(C3CCC(CCCC)CC3)cc2)c2c(c1OC(=O)CCC)C(=O)c1c(OC(=O)CCC)c(CCCC)cc(NC(=O)c3ccc(C4CCC(CCCC)CC4)cc3)c1C2=O (stereo not drawn) [Compound 13]				1.75 mass %		4.9 mass %			-0.37	470 nm	2.1 mass %
CCCCCC1CCC(c2ccc(C(=O)Nc3cc(CCCC)c(O)c4c3C(=O)c3c(OC(=O)c5ccc(C6CCC(CCCCC)CC6)cc5)c(CCCC)cc(NC(=O)c5ccc(C6CCC(CCCCC)CC6)cc5)c3C4=O)cc2)CC1 (stereo not drawn) [Compound 24]				6.0 mass %		6.0 mass %			-0.33	563 nm and 617 nm	5.5 mass %
